For 17 compounds, IC50 and Kd results are on record in patent US8513423B2 (Janssen Pharmaceutica, NV, priority 2010, dated 2013).

The target in test [1] is T1, purified wild type MGL (wt-MGLL 6H-11-313) (Homo sapiens, UniProt Q99685).
T1 construct: purified wild type MGL (wt-MGLL 6H-11-313)
T1 sequence (Q99685 1-303): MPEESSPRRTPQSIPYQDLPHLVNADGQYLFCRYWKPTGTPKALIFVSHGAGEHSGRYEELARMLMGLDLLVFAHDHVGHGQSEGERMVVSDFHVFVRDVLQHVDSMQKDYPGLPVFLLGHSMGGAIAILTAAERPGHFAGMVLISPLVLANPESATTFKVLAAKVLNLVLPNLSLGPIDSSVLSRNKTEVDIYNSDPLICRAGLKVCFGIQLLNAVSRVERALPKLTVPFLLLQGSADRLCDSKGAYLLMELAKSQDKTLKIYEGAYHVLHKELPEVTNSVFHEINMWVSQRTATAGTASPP
Briefly: MGL enzyme activity assay (4MU-B cleavage), wild type MGL. Format: biochemical. As to conditions: 10 μM 4MU-B, 5 nM enzyme, 37° C., read-out: MGL wild type inh IC50. How it is done: All rate-based assays were performed in black 384-well polypropylene PCR microplates (Abgene) in a total volume of 30 μL. Substrate 4-methylumbelliferyl butyrate (4MU-B; Sigma) and either purified mutant MGL (mut-MGLL 11-313 L179S L186S) or purified wild type MGL (wt-MGLL 6H-11-313) were diluted separately into 20 mM PIPES buffer (pH=7.0), containing 150 mM NaCl and 0.001% Tween 20. Compounds of Formula (I) were pre-dispensed (50 nL) into the assay plate using a Cartesian Hummingbird prior to adding 4MU-B (25 μL of 1.2× solution to a final concentration of 10 μM) followed by enzyme (5 μL of a 6× solution to a final concentration of 5 nM) to initiate the reaction. Final compound concentrations ranged from 17 to 0.0003 μM. The fluorescence change due to 4MU-B cleavage was monitored with excitation and emission wavelengths of 335 and 440 nm, respectively, and a bandwidth of 10 nm (Safire^2, Tecan) at 37° C. for 5 min.
The IC50 values for compounds of Formula (I) were determined using Excel from a fit of the equation to the concentration-response plot of the fractional activity as a function of inhibitor concentration.

A further test deals with T2, mutant MGL (Homo sapiens, UniProt Q99685, L169S/L176S).
T2 construct: purified mutant MGL (mut-MGLL 11-313 L179S L186S)
T2 sequence (Q99685 1-303 L169S/L176S): T1 sequence (Q99685 1-303) with L169S, L176S
In words: MGL ThermoFluor assay - mutant. It is filed as binding. On the procedure: The ThermoFluor (TF) assay is a 384-well plate-based binding assay that measures thermal stability of proteins^1,2. The experiments were carried out using instruments available from Johnson & Johnson Pharmaceutical Research & Development, LLC. TF dye used in all experiments was 1,8-ANS (Invitrogen: A-47). Final TF assay conditions used for MGL studies were 0.07 mg/ml of mutant MGL, 100 μM ANS, 200 mM NaCl, 0.001% Tween-20 in 50 mM PIPES (pH=7.0).
Screening compound plates contained 100% DMSO compound solutions at a single concentration. For follow-up concentration-response studies, compounds were arranged in a pre-dispensed plate (Greiner Bio-one: 781280), wherein compounds were serially diluted in 100% DMSO across 11 columns within a series. Columns 12 and 24 were used as DMSO reference and contained no compound. For both single and multiple compound concentration-repsonse experiments, the compound aliquots (46 nL) were robotically predispensed directly into 384-well black assay plates (Abgene: TF-0384/k) using the Hummingbird liquid handler. Following compound dispension, protein and dye solutions were added to achieve the final assay volume of 3 μL. The assay solutions were overlayed with 1 μl of silicone oil (Fluka, type DC 200: 85411) to prevent evaporation.
Bar-coded assay plates were robotically loaded onto a thermostatically controlled PCR-type thermal block and then heated from 40 to 90° C. degrees at a ramp-rate of 1° C./min for all experiments. Fluorescence was measured by continuous illumination with UV light (Hamamatsu LC6), supplied via fiber optics and filtered through a band-pass filter (380-400 nm; >6 OD cutoff). Fluorescence emission of the entire 384-well plate was detected by measuring light intensity using a CCD camera (Sensys, Roper Scientific) filtered to detect 500±25 nm, resulting in simultaneous and independent readings of all 384 wells. A single image with 20-sec exposure time was collected at each temperature, and the sum of the pixel intensity in a given area of the assay plate was recorded vs temperature and fit to standard equations to yield the Tm^1. • 1. Pantoliano, M. W., Petrella, E. C., Kwasnoski, J. D., Lobanov, V. S., Myslik, J., Graf, E., Carver, T., Asel, E., Springer, B. A., Lane, P., and Salemme, F. R. (2001) J Biomol Screen 6, 429-40. • 2. Matulis, D., Kranz, J. K., Salemme, F. R., and Todd, M. J. (2005) Biochemistry 44, 5258-66.
The Kd values for compounds of Formula (I) were determined from a fit of the equation to the concentration-response plot of the fractional activity as a function of Tm. For some experiments, quantitative NMR spectroscopy (qNMR) was used to measure concentration of the initial 100% DMSO compound solutions and, using the same fitting method, qKd values were determined

Where [2] appears, read: compound concentration measured by qNMR, read-out: MGL mutant ThermoFluor qKd (using qNMR conc.).
The mark [3] stands for this setting: 0.07 mg/ml mutant MGL, pH=7.0, read-out: MGL mutant ThermoFluor Kd.

Where a chain is given by its changes, count along the chain named. pIC50, pKd: −log10 of the molar value. Like-named read-outs stand apart in the source and are kept apart here.

As to `O=C(c1ccc2c(c1)ncn2CCC(F)(F)F)N1CC(C2CCN(C(=O)c3nccs3)CC2)C1` [Cpd 85, 5-({3-[1-(1,3-Thiazol-2-ylcarbonyl)piperidin-4-yl]azetidin-1-yl}carbonyl)-1-(3,3,3-trifluoropropyl)-1H-benzimidazole], the pIC50 (usually the negative decadic logarithm of the IC50, by convention in mol/L) in test [1] is 6.55. Also, at mutant MGL (setting [2]), the pKd is 7.19.

For `O=C(c1ccc2c(c1)[nH]c(=O)n2CCC(F)(F)F)N1CC(C2CCN(C(=O)c3nccs3)CC2)C1` [Cpd 100, 5-({3-[1-(1,3-Thiazol-2-ylcarbonyl)piperidin-4-yl]azetidin-1-yl}carbonyl)-1-(3,3,3-trifluoropropyl)-1,3-dihydro-2H-benzimidazol-2-one], the pIC50 in test [1] was 7.00. Also, on mutant MGL (setting [2]), the pKd was 7.05.

On to `O=C(c1ccc2c(c1)ncn2CC(F)(F)F)N1CC(C2CCN(C(=O)c3nccs3)CC2)C1` [Cpd 84, 5-({3-[1-(1,3-Thiazol-2-ylcarbonyl)piperidin-4-yl]azetidin-1-yl}carbonyl)-1-(2,2,2-trifluoroethyl)-1H-benzimidazole], for which the pIC50 in test [1] was 6.76. The pKd at mutant MGL (setting [2]) is 7.18.

Regarding `O=C(c1ccc2c(c1)[nH]c(=O)n2C1CCC(F)(F)CC1)N1CC(C2CCN(C(=O)c3nccs3)CC2)C1` [Cpd 101, 1-(4,4-Difluorocyclohexyl)-5-({3-[1-(1,3-thiazol-2-ylcarbonyl)piperidin-4-yl]azetidin-1-yl}carbonyl)-1,3-dihydro-2H-benzimidazol-2-one], in test [1], the pIC50 was 6.98. Besides, at mutant MGL (setting [2]), the pKd was 8.41.

For the compound `O=C(c1ccc2c(c1)[nH]c(=O)n2-c1ccc(C(F)(F)F)cc1)N1CC(C2CCN(C(=O)c3nccs3)CC2)C1` [Cpd 99, 5-({3-[1-(1,3-Thiazol-2-ylcarbonyl)piperidin-4-yl]azetidin-1-yl}carbonyl)-1-[4-(trifluoromethyl)phenyl]-1,3-dihydro-2H-benzimidazol-2-one], the pIC50 in test [1] was 7.76. In addition, the pKd at mutant MGL (setting [2]) is 7.78.

As for `O=C(c1ccc2c(c1)ncn2-c1ccc(F)c(F)c1)N1CC(C2CCN(C(=O)c3nccs3)CC2)C1` [Cpd 82, 1-(3,4-Difluorophenyl)-5-({3-[1-(1,3-thiazol-2-ylcarbonyl)piperidin-4-yl]azetidin-1-yl}carbonyl)-1H-benzimidazole], the pIC50 in test [1] was 7.45. Further, the pKd at mutant MGL (setting [2]) is 7.64.

In the case of `O=C(c1ccccc1)N1CCC(O)(C2CN(C(=O)c3cc4cc(C(F)(F)F)ccc4s3)C2)CC1` [Cpd 6, 1-(Phenylcarbonyl)-4-(1-{[5-(trifluoromethyl)-1-benzothiophen-2-yl]carbonyl}azetidin-3-yl)piperidin-4-ol], the pIC50 in test [1] was 6.04. Also, the pKd at mutant MGL (setting [3]) is 6.59.

Turning to `O=C(c1cc2ccc(C(F)(F)F)cc2s1)N1CC(C2(O)CCN(C(=O)c3nccs3)CC2)C1` [Cpd 94, 1-(1,3-Thiazol-2-ylcarbonyl)-4-(1-{[6-(trifluoromethyl)-1-benzothiophen-2-yl]carbonyl}azetidin-3-yl)piperidin-4-ol], in test [1], the pIC50 is 8.00. In addition, at mutant MGL (setting [2]), the pKd was 7.60.

As for `Cc1nc2cc(C(=O)N3CC(C4CCN(C(=O)c5nccs5)CC4)C3)ccc2n1-c1ccc(F)cc1` [Cpd 87, 1-(4-Fluorophenyl)-2-methyl-5-({3-[1-(1,3-thiazol-2-ylcarbonyl)piperidin-4-yl]azetidin-1-yl}carbonyl)-1H-benzimidazole], the pIC50 in test [1] was 7.50. The pKd at mutant MGL (setting [2]) is 8.12.

As for `O=C(c1cccc(-c2cccc(F)c2)c1)N1CC(C2CCN(C(=O)c3ccc[nH]3)CC2)C1` [Cpd 23, 4-{1-[(3′-Fluorobiphenyl-3-yl)carbonyl]azetidin-3-yl}-1-(1H-pyrrol-2-ylcarbonyl)piperidine], the pIC50 in test [1] was 6.43. Moreover, the pKd on mutant MGL (setting [3]) is 6.30.

As to `Cc1cc(-n2ccc3cc(C(=O)N4CC(C5CCN(C(=O)c6nccs6)CC5)C4)ccc32)ccn1` [Cpd 95, 1-(2-Methylpyridin-4-yl)-5-({3-[1-(1,3-thiazol-2-ylcarbonyl)piperidin-4-yl]azetidin-1-yl}carbonyl)-1H-indole], in test [1], the negative logarithm of the IC50 (pIC50) is 7.85. Besides, the pKd on mutant MGL (setting [2]) is 7.41.

For the compound `O=C(c1cc[nH]c1)N1CCC(C2CN(C(=O)c3ccc(-c4ccccc4)cc3)C2)CC1` [Cpd 4, 4-[1-(Biphenyl-4-ylcarbonyl)azetidin-3-yl]-1-(1H-pyrrol-3-ylcarbonyl)piperidine], the pIC50 in test [1] is 6.81. Further, the pKd on mutant MGL (setting [3]) is 6.79.

With `Cc1nc2cc(C(=O)N3CC(C4CCN(C(=O)c5nccs5)CC4)C3)ccc2n1CC(F)(F)F` [Cpd 90, 2-Methyl-5-({3-[1-(1,3-thiazol-2-ylcarbonyl)piperidin-4-yl]azetidin-l-yl}carbonyl)-1-(2,2,2-trifluoroethyl)-1H-benzimidazole], in test [1], the pIC50 is 6.76. Further, the pKd at mutant MGL (setting [2]) is 7.63.

For the compound `Cc1nc2cc(C(=O)N3CC(C4CCN(C(=O)c5nccs5)CC4)C3)ccc2n1C1CCC(F)(F)CC1` [Cpd 92, 1-(4,4-Difluorocyclohexyl)-2-methyl-5-({3-[1-(1,3-thiazol-2-ylcarbonyl)piperidin-4-yl]azetidin-1-yl}carbonyl)-1H-benzimidazole], the pIC50 in test [1] was 6.79. Moreover, at mutant MGL (setting [2]), the pKd is 8.47.

With `O=C(c1ccc2c(c1)[nH]c(=O)n2-c1ccc(F)c(F)c1)N1CC(C2CCN(C(=O)c3nccs3)CC2)C1` [Cpd 98, 1-(3,4-Difluorophenyl)-5-({3-[1-(1,3-thiazol-2-ylcarbonyl)piperidin-4-yl]azetidin-1-yl}carbonyl)-1,3-dihydro-2H-benzimidazol-2-one], the pIC50 in test [1] is 7.78. Also, at mutant MGL (setting [2]), the pKd is 7.36.

With `O=C(c1cscn1)N1CCC(C2CN(C(=O)c3ccc(-c4ccccc4)cc3F)C2)CC1` [Cpd 9, 4-{1-[(3-Fluorobiphenyl-4-yl)carbonyl]azetidin-3-yl}-1-(1,3-thiazol-4-ylcarbonyl)piperidine], in test [1], the pIC50 is 6.94. In addition, the pKd on mutant MGL (setting [3]) is 7.00.

`O=C(c1ccc2c(ccn2-c2ccc(F)c(F)c2)c1)N1CCC(C2CN(C(=O)c3nccs3)C2)CC1` [Cpd 78, 1-(3,4-Difluorophenyl)-5-({4-[1-(1,3-thiazol-2-ylcarbonyl)azetidin-3-yl]piperidin-1-yl}carbonyl)-1H-indole]: the negative logarithm of the IC50 (pIC50) in test [1] was above 8.30. At mutant MGL (setting [2]), the pKd was 8.64.
